Experimental data as given in ChEMBL document CHEMBL1201862, “PubChem BioAssay data set” (2004).
The source made the active and inactive calls.

Key:
[1] = biological target: T1, Small ubiquitin-related modifier 1 (Homo sapiens, UniProt P63165); assay: inhibitors of SUMO1 peptide binding, dose response, biochemical, fluorescence polarization, uHTS hits (AID 624382); type: functional; conditions: read-out: IC50_Mean
[2] = biological target: T1, Small ubiquitin-related modifier 1; assay: inhibitors of SUMO1 partner interactions, dose response, biochemical, FRET (AID 624383); type: functional; conditions: read-out: IC50_Mean
[3] = tested on: BJ; assay: cells; type: functional, cell-based; conditions: Homo sapiens
[4] = tested on: BJ; assay: cytotoxicity toward BJ-TERT-LT-ST fibroblasts, dose response, cell-based, RAS-independent, luminescence (AID 1935); type: functional; conditions: Homo sapiens;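 further: BJ fibroblasts immortalized with TERT plus LT and ST oncogenes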
[5] = cytotoxicity toward DRD oncogenic fibroblasts, dose response, cell-based, non-viral oncogenic, luminescence (AID 1934); type: functional; conditions: Homo sapiens
[6] = tested on: BJ; assay: cytotoxicity toward BJ-TERT fibroblasts, dose response, cell-based, RAS-independent, luminescence (AID 1933); type: functional; conditions: Homo sapiens
[7] = Luminescence Cell-Based Dose Retest to Confirm Inhibitors of Cancer Stem Cells. [Related pubchem assays (depositor defined):AID2717, AID2721]; type: functional; conditions: Homo sapiens
[8] = biological target: T2, Heat shock factor protein 1 (Mus musculus, UniProt P38532); assay: HSF1 potentiators in luciferase reporter cells, confirmation, cell-based, NIH3T3, luminescence, dose retest (AID 435004); type: functional;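 further: stress induced by proteasome inhibitor MG132 added 30 min after compound; luciferase reporter driven by HSF1 response element in NIH3T3 cells; actives raise luminescence as potentiators of the MG132 stress response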
T2 sequence (P38532 whole entry): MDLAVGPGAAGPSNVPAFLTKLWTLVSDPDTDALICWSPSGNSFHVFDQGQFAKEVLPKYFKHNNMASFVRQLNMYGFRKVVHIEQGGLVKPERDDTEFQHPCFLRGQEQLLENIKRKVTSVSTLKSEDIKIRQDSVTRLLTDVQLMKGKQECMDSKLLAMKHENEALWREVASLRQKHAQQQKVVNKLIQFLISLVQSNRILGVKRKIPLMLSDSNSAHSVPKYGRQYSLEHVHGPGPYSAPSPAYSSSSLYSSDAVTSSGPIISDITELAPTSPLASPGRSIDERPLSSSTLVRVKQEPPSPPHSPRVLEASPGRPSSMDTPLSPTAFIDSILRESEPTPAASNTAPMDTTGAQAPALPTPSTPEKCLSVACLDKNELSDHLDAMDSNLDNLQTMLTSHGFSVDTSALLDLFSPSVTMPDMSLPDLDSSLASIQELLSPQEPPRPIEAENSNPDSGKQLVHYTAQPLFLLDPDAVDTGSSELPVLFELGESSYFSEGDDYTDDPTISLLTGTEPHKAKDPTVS

[9] = tested on: Vero; assay: Vero cell cytotoxicity, cytotoxicity control for flavivirus capping enzyme inhibitors (AID 588742); type: functional; conditions: Chlorocebus sabaeus
[10] = biological target: Nonstructural protein 1 (Influenza A virus, UniProt Q194T2); type: functional, Influenza A virus (A/California/07/2009(H1N1))
[11] = cells
[12] = cytotoxicity toward NIH3T3 fibroblasts, dose response, counter-screen, cell-based, ATP luminescence, mouse fibroblasts (AID 2010); type: functional;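 further: cells exposed to compound for about 90 hours before reading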
[13] = inhibitors of intracellular T. cruzi replication, confirmation, NIH3T3 host cells, beta-gal luminescence (AID 2044); type: functional, cell-based;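 further: intracellular parasites grown in NIH/3T3 mouse fibroblasts as host cells; luminescent beta-galactosidase reporter signal from transgenic T. cruzi replicating inside host cells; inhibitors lower the luminescence signal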
[14] = biological target: T3, Streptokinase A (Streptococcus pyogenes serotype M1, UniProt P10520); assay: S. pyogenes streptokinase expression inhibitors, potency, dose response, plasminogen activation absorbance, OD405 (AID 1914); type: functional, Streptococcus pyogenes M1 GAS;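 further: secreted streptokinase activity via plasminogen activation per viability signal from cell pellet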
T3 sequence (P10520 whole entry): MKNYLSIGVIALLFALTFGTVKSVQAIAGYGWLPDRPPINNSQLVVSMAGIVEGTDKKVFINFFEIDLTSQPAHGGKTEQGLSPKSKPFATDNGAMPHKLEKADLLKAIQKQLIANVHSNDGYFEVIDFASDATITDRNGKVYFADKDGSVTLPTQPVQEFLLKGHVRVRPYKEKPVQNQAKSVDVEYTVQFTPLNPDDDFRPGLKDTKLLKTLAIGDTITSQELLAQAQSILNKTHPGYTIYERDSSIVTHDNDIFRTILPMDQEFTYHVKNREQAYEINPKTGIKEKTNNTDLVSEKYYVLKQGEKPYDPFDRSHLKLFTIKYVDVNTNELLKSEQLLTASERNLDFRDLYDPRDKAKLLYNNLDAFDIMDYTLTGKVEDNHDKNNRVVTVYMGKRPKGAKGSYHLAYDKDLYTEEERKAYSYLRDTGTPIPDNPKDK

[15] = tested on: Streptococcus sp. 'group A'; assay: growth inhibition of control SK(-) GAS strain, dose response, counter-screen for streptokinase expression inhibitor project, luminescence, kanamycin, BacTiterGlo, confirmation (AID 1900); type: functional, organism-based
[16] = tested on: Streptococcus; assay: Group A Streptococcus viability loss, dose response, counter-screen for streptokinase expression inhibitor project, luminescence, BacTiterGlo (AID 1915); type: functional, organism-based;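 further: potency for reduction of bacterial viability or growth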
[17] = cytotoxicity in HEK-293T cells, dose response, cytotoxicity control for TCR NF-kB inhibitor project, luminescence, T-cell screen hits (AID 489026); type: functional, cell-based;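 further: cells exposed to compound about 14 hours before the viability readout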
[18] = biological target: T4, Sentrin-specific protease 8 (Homo sapiens, UniProt Q96LD8); type: functional
T4 sequence (Q96LD8 whole entry): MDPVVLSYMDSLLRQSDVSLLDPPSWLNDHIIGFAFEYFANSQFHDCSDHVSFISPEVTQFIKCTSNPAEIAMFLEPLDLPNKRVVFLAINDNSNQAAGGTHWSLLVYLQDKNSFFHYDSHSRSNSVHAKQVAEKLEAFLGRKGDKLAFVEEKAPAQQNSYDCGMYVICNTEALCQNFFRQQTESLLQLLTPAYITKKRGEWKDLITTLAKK

[19] = biological target: T4, Sentrin-specific protease 8; type: functional; remark: listed apart in the source
[20] = biological target: SWI/SNF-related matrix-associated actin-dependent regulator of chromatin subfamily A member 2 (Homo sapiens, UniProt P51531); assay: Luminescence-based cell-based high throughput dose response assay to identify activators of the function of SWI/SNF related, matrix associated, actin dependent regulator of chromatin, subfamily a, member 2 (SMARCA2, BRM).; type: functional
Chain of SWI/SNF-related matrix-associated actin-dependent regulator of chromatin subfamily A member 2 (P51531 whole entry): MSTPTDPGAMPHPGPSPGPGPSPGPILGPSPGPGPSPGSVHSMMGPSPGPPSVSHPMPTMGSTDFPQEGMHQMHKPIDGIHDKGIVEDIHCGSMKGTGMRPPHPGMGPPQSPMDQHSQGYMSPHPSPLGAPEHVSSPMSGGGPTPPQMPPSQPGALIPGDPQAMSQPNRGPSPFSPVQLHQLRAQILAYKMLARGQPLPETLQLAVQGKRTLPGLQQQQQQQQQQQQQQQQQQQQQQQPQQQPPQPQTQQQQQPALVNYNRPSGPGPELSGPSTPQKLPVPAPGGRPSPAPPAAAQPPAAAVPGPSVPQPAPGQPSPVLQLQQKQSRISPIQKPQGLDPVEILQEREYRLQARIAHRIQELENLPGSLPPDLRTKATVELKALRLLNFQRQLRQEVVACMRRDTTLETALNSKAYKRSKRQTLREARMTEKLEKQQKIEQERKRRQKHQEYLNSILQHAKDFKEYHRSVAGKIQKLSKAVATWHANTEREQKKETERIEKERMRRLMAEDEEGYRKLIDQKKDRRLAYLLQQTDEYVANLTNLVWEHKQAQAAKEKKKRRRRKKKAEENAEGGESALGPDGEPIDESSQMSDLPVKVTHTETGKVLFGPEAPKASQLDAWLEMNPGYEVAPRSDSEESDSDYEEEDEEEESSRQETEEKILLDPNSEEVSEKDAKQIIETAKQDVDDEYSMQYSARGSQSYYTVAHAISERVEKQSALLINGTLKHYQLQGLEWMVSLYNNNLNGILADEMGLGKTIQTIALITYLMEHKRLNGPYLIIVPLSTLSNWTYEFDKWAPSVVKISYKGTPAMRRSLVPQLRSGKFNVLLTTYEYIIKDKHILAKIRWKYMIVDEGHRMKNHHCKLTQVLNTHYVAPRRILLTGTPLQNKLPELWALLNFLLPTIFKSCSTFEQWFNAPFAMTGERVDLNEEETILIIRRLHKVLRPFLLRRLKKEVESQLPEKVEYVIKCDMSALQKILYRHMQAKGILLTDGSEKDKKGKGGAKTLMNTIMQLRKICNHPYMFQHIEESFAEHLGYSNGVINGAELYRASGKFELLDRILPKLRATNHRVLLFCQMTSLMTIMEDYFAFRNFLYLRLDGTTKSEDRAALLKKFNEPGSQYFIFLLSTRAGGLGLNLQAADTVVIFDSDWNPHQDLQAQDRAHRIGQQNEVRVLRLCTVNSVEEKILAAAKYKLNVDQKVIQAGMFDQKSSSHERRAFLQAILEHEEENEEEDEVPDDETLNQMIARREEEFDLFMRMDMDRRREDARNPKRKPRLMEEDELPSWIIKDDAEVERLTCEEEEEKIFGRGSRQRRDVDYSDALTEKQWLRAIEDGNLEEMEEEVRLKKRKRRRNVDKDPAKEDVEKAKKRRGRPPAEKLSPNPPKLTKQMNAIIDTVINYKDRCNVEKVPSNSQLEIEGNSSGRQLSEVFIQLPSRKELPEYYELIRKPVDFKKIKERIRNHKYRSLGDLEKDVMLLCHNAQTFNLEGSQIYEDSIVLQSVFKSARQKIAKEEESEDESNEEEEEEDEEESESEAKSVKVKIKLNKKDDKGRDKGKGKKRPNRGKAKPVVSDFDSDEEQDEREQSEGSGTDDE

[21] = Counterscreen for activators of the function of SWI/SNF related, matrix associated, actin dependent regulator of chromatin, subfamily a, member 2 (SMARCA2, BRM): Luminescence-based cell-based high throughput dose response assay to identify non-selective compounds using the VP16 reporter assay.; type: functional
[22] = biological target: NAD-dependent protein deacylase sirtuin-5, mitochondrial (Homo sapiens, UniProt Q9NXA8); assay: SIRT5 desuccinylase inhibitors, dose response, biochemical, fluorescence imaging, cherry-pick, set 5 (AID 720591);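 further: desuccinylation of succinyl peptide AMC substrate read as fluorescence after trypsin release; potency of inhibitors that lower fluorescence and may act on trypsin instead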
Chain of NAD-dependent protein deacylase sirtuin-5, mitochondrial (Q9NXA8 whole entry, the tested form may be a part): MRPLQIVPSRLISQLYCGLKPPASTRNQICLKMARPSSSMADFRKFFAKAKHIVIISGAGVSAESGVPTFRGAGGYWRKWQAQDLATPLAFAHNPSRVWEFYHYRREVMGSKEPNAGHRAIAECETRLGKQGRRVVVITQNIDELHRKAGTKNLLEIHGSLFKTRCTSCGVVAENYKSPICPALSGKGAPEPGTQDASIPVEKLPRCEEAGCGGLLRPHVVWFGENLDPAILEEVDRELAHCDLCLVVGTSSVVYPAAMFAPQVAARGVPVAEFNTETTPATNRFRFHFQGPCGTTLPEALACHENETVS

[23] = biological target: Fatty acid synthase (Homo sapiens, UniProt P49327); assay: FAS thioesterase domain inhibitors, dose response, biochemical, kinetic fluorescence intensity (AID 624326); type: functional;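 further: rate of fluorescence rise from hydrolysis of a fluorogenic O-methyl fluorescein ester substrate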
Chain of Fatty acid synthase (P49327 whole entry, the tested form may be a part): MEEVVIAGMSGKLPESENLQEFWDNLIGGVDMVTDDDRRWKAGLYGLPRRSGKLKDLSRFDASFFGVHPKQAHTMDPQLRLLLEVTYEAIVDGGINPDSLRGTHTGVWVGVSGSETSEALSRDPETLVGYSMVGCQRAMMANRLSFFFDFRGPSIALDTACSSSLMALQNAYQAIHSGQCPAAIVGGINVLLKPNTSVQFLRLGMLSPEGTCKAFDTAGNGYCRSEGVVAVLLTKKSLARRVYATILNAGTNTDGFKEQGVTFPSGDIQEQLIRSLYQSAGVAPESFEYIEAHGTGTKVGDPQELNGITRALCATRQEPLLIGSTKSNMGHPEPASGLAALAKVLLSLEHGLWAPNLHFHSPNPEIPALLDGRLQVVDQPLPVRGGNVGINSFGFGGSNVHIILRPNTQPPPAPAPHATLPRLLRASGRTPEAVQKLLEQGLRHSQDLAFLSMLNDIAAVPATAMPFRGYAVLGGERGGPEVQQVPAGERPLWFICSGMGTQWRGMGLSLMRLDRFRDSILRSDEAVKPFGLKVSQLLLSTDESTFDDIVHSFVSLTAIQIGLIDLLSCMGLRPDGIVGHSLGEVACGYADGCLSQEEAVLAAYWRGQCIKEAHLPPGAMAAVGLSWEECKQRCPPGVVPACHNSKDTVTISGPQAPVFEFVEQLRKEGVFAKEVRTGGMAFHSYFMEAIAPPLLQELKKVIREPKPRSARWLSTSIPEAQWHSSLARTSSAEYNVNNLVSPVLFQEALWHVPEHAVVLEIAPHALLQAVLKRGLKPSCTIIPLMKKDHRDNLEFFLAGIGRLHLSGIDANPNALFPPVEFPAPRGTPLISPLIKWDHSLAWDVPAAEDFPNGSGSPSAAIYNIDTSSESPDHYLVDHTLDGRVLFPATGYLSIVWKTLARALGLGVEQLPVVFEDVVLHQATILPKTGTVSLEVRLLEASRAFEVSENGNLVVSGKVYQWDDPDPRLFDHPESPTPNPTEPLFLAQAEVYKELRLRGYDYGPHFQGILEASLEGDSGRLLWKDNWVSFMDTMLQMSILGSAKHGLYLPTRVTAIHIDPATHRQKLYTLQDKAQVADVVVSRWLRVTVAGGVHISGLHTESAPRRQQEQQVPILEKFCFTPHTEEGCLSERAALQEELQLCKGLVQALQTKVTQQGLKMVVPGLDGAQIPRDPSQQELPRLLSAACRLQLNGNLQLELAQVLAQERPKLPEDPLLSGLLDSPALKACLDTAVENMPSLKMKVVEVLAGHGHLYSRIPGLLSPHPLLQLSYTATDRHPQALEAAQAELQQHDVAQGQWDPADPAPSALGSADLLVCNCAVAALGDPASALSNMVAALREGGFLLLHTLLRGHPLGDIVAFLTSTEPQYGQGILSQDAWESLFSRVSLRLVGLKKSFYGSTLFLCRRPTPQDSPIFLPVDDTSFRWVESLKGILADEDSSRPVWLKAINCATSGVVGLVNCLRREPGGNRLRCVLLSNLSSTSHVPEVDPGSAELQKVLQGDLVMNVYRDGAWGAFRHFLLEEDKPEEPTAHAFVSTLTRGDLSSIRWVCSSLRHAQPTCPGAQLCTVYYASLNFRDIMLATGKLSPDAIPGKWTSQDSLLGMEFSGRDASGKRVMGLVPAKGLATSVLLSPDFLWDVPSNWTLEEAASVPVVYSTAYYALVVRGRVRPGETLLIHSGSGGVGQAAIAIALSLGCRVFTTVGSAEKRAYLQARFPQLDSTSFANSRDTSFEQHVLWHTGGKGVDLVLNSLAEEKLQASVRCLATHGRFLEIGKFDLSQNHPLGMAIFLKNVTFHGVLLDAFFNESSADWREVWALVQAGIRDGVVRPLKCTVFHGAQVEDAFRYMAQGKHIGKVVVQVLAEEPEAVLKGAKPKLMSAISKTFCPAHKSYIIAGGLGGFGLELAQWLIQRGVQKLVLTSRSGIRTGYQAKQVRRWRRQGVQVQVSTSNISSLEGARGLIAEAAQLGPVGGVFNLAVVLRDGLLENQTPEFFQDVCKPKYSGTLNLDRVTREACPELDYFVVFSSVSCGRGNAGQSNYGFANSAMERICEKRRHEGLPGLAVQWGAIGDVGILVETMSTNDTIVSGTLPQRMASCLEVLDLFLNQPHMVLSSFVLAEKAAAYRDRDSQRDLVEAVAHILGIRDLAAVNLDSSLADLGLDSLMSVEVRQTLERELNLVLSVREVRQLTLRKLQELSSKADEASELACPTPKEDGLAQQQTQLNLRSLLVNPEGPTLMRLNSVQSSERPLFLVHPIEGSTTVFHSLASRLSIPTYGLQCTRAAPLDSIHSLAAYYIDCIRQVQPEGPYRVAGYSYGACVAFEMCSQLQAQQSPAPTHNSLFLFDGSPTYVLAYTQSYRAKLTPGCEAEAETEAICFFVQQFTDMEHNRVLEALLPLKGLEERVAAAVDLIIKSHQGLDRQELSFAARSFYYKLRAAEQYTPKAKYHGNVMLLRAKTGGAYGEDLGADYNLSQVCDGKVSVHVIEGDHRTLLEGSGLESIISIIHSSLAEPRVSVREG

[24] = biological target: T5, Mannose-6-phosphate isomerase (Homo sapiens, UniProt P34949); assay: human PMI inhibitors, high substrate, primary screen, biochemical, fluorescence intensity, high mannose 6-phosphate (AID 1220)
T5 sequence (P34949 whole entry): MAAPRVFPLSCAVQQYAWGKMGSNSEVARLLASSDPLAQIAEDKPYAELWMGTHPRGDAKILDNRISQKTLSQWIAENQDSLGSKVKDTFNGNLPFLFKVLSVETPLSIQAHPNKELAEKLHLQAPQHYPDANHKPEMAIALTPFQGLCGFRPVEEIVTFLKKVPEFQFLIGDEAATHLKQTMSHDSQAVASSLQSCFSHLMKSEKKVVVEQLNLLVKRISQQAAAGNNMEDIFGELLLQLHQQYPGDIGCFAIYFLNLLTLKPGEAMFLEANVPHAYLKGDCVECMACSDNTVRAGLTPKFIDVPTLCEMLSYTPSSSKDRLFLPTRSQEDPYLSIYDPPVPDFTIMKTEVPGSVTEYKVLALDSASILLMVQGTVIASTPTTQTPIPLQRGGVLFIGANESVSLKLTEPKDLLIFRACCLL

[25] = Fluorescence-based cell-based high throughput dose response assay for inhibitors of the interaction of nucleotide-binding oligomerization domain containing 2 (NOD2) and the receptor-interacting serine-threonine kinase 2 (RIPK2).; type: functional; conditions: Homo sapiens
[26] = biological target: Paired box protein Pax-8 (Homo sapiens, UniProt Q06710); assay: inhibitors of PAX8-driven TPO luciferase reporter, dose response, RMG-I cells, cherry-pick (AID 687027); type: functional, cell-based;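 further: luciferase reporter driven by Pax8 target thyroperoxidase promoter measured by SteadyGlo luminescence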
Chain of Paired box protein Pax-8 (Q06710 whole entry): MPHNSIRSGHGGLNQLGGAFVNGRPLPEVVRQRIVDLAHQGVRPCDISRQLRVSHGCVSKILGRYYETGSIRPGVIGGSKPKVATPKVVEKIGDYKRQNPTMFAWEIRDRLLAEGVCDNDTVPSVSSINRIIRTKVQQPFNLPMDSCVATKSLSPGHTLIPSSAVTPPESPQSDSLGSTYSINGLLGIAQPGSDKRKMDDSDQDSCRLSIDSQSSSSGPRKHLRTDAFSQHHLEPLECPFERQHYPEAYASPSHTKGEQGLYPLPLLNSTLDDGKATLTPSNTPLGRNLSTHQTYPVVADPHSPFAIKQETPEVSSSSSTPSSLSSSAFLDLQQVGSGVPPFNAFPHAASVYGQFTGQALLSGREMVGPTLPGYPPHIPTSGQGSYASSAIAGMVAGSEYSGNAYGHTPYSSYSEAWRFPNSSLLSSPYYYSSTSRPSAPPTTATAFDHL

[27] = biological target: T6, DNA repair protein RAD52 homolog (Homo sapiens, UniProt P43351); type: functional, biochemical
T6 sequence (P43351 whole entry): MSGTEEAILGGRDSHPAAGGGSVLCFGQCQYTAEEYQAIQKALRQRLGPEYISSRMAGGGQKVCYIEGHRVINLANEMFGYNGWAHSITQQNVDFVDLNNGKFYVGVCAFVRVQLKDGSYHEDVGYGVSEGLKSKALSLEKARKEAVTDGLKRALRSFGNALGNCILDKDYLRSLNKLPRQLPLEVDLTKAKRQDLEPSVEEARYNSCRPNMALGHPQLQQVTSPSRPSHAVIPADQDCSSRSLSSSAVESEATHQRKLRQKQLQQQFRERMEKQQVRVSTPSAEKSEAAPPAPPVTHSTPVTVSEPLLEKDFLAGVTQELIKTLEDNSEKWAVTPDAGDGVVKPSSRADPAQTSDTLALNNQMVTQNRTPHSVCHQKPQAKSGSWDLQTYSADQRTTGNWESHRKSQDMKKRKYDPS

[28] = intracellular Trypanosoma cruzi inhibitors in host cells – cell-based, plate reader, cherry-pick samples, set 3, dose response (AID 651818); type: functional;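 further: compounds incubated with infected cells for about four days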

T1 sequence (P63165 whole entry): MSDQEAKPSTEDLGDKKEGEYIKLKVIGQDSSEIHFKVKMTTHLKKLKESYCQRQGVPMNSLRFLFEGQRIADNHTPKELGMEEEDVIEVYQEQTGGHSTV

## COc1ccc(C(=O)Nc2ccccc2C(=O)NC(Cc2ccc(O)cc2)C(=O)NNC(=O)c2ccc(C)cc2)cc1 (centres undefined)
[1]
  IC50: > 66.6 µM (inactive)
[2]
  IC50: 2.32 µM (active)

## CN1CCN(c2ccc(C(=O)c3ccc(Br)cc3)cc2[N+](=O)[O-])CC1
[3]
  EC50: > 150 µM (not active)
[4]
  EC50: > 150 µM (not active)
[5]
  EC50: > 150 µM (not active)
[6]
  EC50: > 150 µM (not active)

## O=C1C=CC(=O)N1c1ccc(Sc2ccc([N+](=O)[O-])cc2)cc1
[3]
  EC50: 21 µM (active)
[4]
  EC50: > 75 µM (inconclusive)
[5]
  EC50: 24.7 µM (active)
[6]
  EC50: 7.87 µM (active)

## O=C/C=C/c1c(-c2ccccc2)cc2oc3ccccc3cc1-2
[7]
  AC50: 10.4 µM (active)
[8]
  EC50: > 260 µM (inactive)
[9]
  CC50: > 40 µM (active)
[10]
  IC50: 37.1 µM (active)

## Cc1nc2c(Cl)cccc2c(O)c1CN1CCCCCC1
[11]
  EC50: 0.046 µM (active)
[12]
  EC50: > 60 µM (not active)
[13]
  EC50: < 0.1 µM (active)

## COC(=O)c1cnc(Oc2ccc(NC(=O)NC(=O)c3c(F)cccc3Cl)cc2)cc1C(F)(F)F
[3]
  EC50: 36.1 µM (inconclusive)
[4]
  EC50: 19.9 µM (active)
[14]
  EC50: 1.95 µM (active)
[15]
  EC50: 49 µM (active)
[16]
  EC50: > 150 µM (not active)
[5]
  EC50: 3.69 µM (inconclusive)
[17]
  IC50: > 80 µM (inactive)
[6]
  EC50: 1.08 µM (active)

## CC1CC(C)CN(CCOCCSc2ccccc2)C1 (centres undefined)
[11]
  EC50: 0.09 µM (active)
[12]
  EC50: > 60 µM (inconclusive)
[13]
  EC50: < 0.1 µM (active)

## NS(=O)(=O)c1ccc(CCNC(=O)COC(=O)c2ccc([N+](=O)[O-])o2)cc1
[18]
  IC50: 6.46 µM (active)
[19]
  IC50: 9.2 µM (active)

## Cc1cc(NC(=O)c2ccco2)ncc1NC(=O)Cc1ccccc1
[20]
  EC50: > 91.2 µM (inactive)
[21]
  EC50: > 91.2 µM (inactive)

## CC(=O)c1ccc(OC(=O)Cc2cccc3ccccc23)cc1
[22]
  AC50: 10.4 µM (active)

## Cc1cccc(-n2c(SCC(N)=O)nnc2-c2ccco2)c1
[22]
  AC50: > 30 µM (inactive)

## COc1ccc(NC(=O)CC2C(=O)N(C)C(=S)N2Cc2cccs2)cc1 (centres undefined)
[23]
  IC50: 15.8 µM (active)

## COc1cc(C(=O)NNC(=O)C2CCC2)cc(OC)c1OC
[22]
  AC50: 29.9 µM (active)

## Cc1cc(CNC(=O)Cc2c(F)cccc2Cl)nn1C
[22]
  AC50: > 30 µM (inactive)

## CN(C)/C=N/c1c(Br)cc(Br)c2nonc12
[18]
  IC50: 21.3 µM (active)
[24]
  IC50: > 50 µM (not active)
[19]
  IC50: 10.2 µM (active)

## CCN(CC)CCNC(=O)C(Cl)=C1C(Cl)=C(Cl)C(Cl)=C1Cl
[20]
  EC50: > 91.2 µM (inactive)
[21]
  EC50: > 91.2 µM (inactive)

## O=c1ccc2ccccc2c2ccccc12
[25]
  IC50: 6.6 µM (active)
[26]
  AC50: 6.07 µM (active)

## COc1ccc2sc3cccc(NCCN(C)C)c3c(=O)c2c1
[20]
  EC50: > 10.1 µM (inactive)
[27]
  AC50: 0.683 µM (active)
[21]
  EC50: > 91.2 µM (inactive)

## C[C@H](CO)N1C[C@H](C)[C@H](CN(C)Cc2ccc(C(=O)Nc3ccccc3N)cc2)Oc2c(NS(=O)(=O)c3ccccc3)cccc2C1=O
[28]
  AC50: 2.19 µM (active)

## C[C@H](CO)N1C[C@H](C)[C@@H](CN(C)CC2CCCCC2)Oc2c(NC(=O)Nc3ccc(C(F)(F)F)cc3)cccc2C1=O
[28]
  AC50: 3.48 µM (active)

## C[C@H](CO)N1C[C@H](C)[C@H](CN(C)Cc2ccc(-c3ccccc3)cc2)Oc2ccc(NC(=O)Nc3ccc(C(F)(F)F)cc3)cc2CC1=O
[28]
  AC50: 2.21 µM (active)

## C[C@@H]1CN([C@@H](C)CO)C(=O)Cc2cc(NC(=O)Nc3ccccc3)ccc2O[C@@H]1CN(C)Cc1ccc(Cl)c(Cl)c1
[28]
  AC50: 3.92 µM (active)

## O=C(N/N=C/c1ccc([N+](=O)[O-])o1)c1cn(-c2ccccc2)nc1-c1ccc(Cl)cc1
[11]
  EC50: 0.028 µM (active)
[12]
  EC50: > 30 µM (not active)
[13]
  EC50: < 0.1 µM (active)
